We go through ten compounds from patent US9399638B2, “Substituted pyridine compounds as CRAC modulators” (LUPIN LIMITED, priority 2012, dated 2016).

Molecules are shown by their SMILES.

This assay concerns IL-2 secretion by Jurkat T cells. Nature of the assay: Inhibition of IL-2 secretion. In kind it is cell-based. Conditions: Homo sapiens; Jurkat T cells stimulated with PHA, 20 to 24 hours, IL-2 by ELISA. How it is done: The CRAC channel modulatory activity of the compounds were thus evaluated by measuring the secretion of IL-2 by antigen stimulated T-cells in vitro. Alternatively, such activity can also be evaluated by assay methods known to one skilled in the art.
Inhibition of IL-2 secretion: Jurkat T cells were seeded at a density of 0.5 to 1 million cells per well in RPMI medium. Test compounds from this invention were added to the cells at different concentrations. This was followed by the addition of PHA, a T cell mitogen after 10 minutes. The cells were then incubated for 20 to 24 hours in a CO2 incubator at 37° C. After incubation with the compounds, cells were centrifuged, the supernatant was collected and processed for ELISA to quantitate the amount of IL-2 secreted. A commercial ELISA kit (R&D Systems, Inc. Minneapolis, Minn., USA) was used to estimate the IL-2 concentrations. Amount of IL-2 secreted by cells stimulated with PHA was considered as a 100% maximal signal and the decrease in amount of IL-2 secreted by cells treated with the test compounds was expressed as percent inhibition of the maximal signal. The dose response data was analyzed using 4-parametric sigmoidal dose response (variable slope) curve—fit.
(ELISA stands for enzyme-linked immunosorbent assay.)
As for `Cn1nc(-c2cnc(C3CC3)c(-c3ccc(C(=O)Nc4c(F)cccc4F)s3)c2)oc1=O` [Example 59, 5-(2-Cyclopropyl-5-(4-methyl-5-oxo-4,5-dihydro-1,3,4-oxadiazol-2-yl)pyridin-3-yl)-N-(2,6-difluorophenyl)thiophene-2-carboxamide], the IC50 – broadly, the concentration needed to halve the response being measured – is less than 100 nM.
To `Cn1nc(-c2cnc(C(F)(F)F)c(-c3ccc(C(=O)Nc4c(F)cccc4F)s3)c2)oc1=O` [Example 60, N-(2,6-Difluorophenyl)-5-(5-(4-methyl-5-oxo-4,5-dihydro-1,3,4-oxadiazol-2-yl)-2-(trifluoromethyl)pyridin-3-yl)thiophene-2-carboxamide] belongs less than 100 nM; to `CNc1ncc(-c2nn(C)c(=O)o2)cc1-c1ccc(C(=O)Nc2c(F)cccc2F)s1` [Example 61, N-(2,6-Difluorophenyl)-5-(5-(4-methyl-5-oxo-4,5-dihydro-1,3,4-oxadiazol-2-yl)-2-(methylamino)pyridin-3-yl)thiophene-2-carboxamide], less than 100 nM.
To `Cc1ncc(-c2nn(C)c(=O)o2)cc1-c1ccc(C(=O)Nc2c(F)cccc2F)n1C` [Example 62, N-(2,6-Difluorophenyl)-1-methyl-5-(2-methyl-5-(4-methyl-5-oxo-4,5-dihydro-1,3,4-oxadiazol-2-yl)pyridin-3-yl)-1H-pyrrole-2-carboxamide] belongs 100 to 1000 nM; to `CCc1ncc(-c2nn(C)c(=O)o2)cc1-c1ccc(C(=O)Nc2c(F)cccc2F)n1C` [Example 63, N-(2,6-Difluorophenyl)-5-(2-ethyl-5-(4-methyl-5-oxo-4,5-dihydro-1,3,4-oxadiazol-2-yl)pyridin-3-yl)-1-methyl-1H-pyrrole-2-carboxamide], greater than 1000 nM.
In turn, `CCc1cc(-c2ccc(NC(=O)c3c(F)cccc3F)cc2)nc(-c2nn(C)c(=O)o2)c1` [Example 64, N-(4-(4-Ethyl-6-(4-methyl-5-oxo-4,5-dihydro-1,3,4-oxadiazol-2-yl)pyridin-2-yl)phenyl)-2,6-difluorobenzamide] had an IC50 greater than 1000 nM.
The same measure for `CCc1cc(-c2nn(C)c(=O)o2)cnc1-c1ccc(NC(=O)c2c(F)cccc2F)cc1` [Example 65, N-(4-(3-Ethyl-5-(4-methyl-5-oxo-4,5-dihydro-1,3,4-oxadiazol-2-yl)pyridin-2-yl)phenyl)-2,6-difluorobenzamide]: greater than 1000 nM; for `Cn1nc(-c2cnc(-c3ccc(NC(=O)c4c(F)cccc4F)cc3)c(C3CC3)c2)oc1=O` [Example 66, N-(4-(3-Cyclopropyl-5-(4-methyl-5-oxo-4,5-dihydro-1,3,4-oxadiazol-2-yl)pyridin-2-yl)phenyl)-2,6-difluorobenzamide]: 100 to 1000 nM.
In turn, `Cn1nc(-c2cc(C3CC3)cnc2-c2ccc(NC(=O)c3c(F)cccc3F)cc2)oc1=O` [Example 67, N-(4-(5-Cyclopropyl-3-(4-methyl-5-oxo-4,5-dihydro-1,3,4-oxadiazol-2-yl)pyridin-2-yl)phenyl)-2,6-difluorobenzamide] came in with an IC50 greater than 1000 nM.
To `CCc1ncc(-c2ccc(NC(=O)c3c(F)cccc3F)cc2)cc1-c1nn(C)c(=O)o1` [Example 68, N-(4-(6-Ethyl-5-(4-methyl-5-oxo-4,5-dihydro-1,3,4-oxadiazol-2-yl)pyridin-3-yl)phenyl)-2,6-difluorobenzamide] belongs greater than 1000 nM.
